Measured values: ChEMBL document CHEMBL5335794, “Discovery of novel multifunctional ligands targeting GABA transporters, butyrylcholinesterase, β-secretase, and amyloid β aggregation as potential treatment of Alzheimer's disease” (Eur J Med Chem, 2023)

Key:
[1] = molecular target: Sodium- and chloride-dependent GABA transporter 1 (Mus musculus, UniProt P31648); assay: Inhibition of mouse GAT1 transfected in HEK293 cells assessed as reduction in [3H]-GABA uptake preincubated for 25 mins followed by [3H]-GABA addition and measured after 4 mins by liquid scintillation counting analysis; type: cell-based; settings: for IC50: read-out: pIC50 (converted)
[2] = molecular target: T1, GABA transporter 2 (Mus musculus, UniProt P31651); assay: Inhibition of mouse GAT2 transfected in HEK293 cells assessed as reduction in [3H]-GABA uptake preincubated for 25 mins followed by [3H]-GABA addition and measured after 10 mins by liquid scintillation counting analysis; type: cell-based; settings: read-out: pIC50 (converted)
T1 sequence (P31651 whole entry): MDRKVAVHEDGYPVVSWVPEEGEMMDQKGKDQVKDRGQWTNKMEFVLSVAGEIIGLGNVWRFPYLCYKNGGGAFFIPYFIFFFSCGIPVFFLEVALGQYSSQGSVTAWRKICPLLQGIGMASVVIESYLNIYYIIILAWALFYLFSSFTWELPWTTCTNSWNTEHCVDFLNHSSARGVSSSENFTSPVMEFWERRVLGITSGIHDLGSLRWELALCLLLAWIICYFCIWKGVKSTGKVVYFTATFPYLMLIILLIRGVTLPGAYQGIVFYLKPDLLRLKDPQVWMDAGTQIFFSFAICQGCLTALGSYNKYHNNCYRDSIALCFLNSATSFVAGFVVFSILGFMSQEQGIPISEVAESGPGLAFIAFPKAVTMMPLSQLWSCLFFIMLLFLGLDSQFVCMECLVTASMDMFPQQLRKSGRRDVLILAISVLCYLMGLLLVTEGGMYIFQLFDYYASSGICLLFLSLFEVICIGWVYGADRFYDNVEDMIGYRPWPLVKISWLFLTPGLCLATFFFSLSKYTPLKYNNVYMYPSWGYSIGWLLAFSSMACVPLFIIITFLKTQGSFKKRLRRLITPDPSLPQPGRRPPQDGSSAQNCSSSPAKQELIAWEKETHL

[3] = Inhibition of mouse GAT3 transfected in HEK293 cells assessed as reduction in [3H]-GABA uptake preincubated for 25 mins followed by [3H]-GABA addition and measured after 4 mins by liquid scintillation counting analysis; type: cell-based; settings: for IC50: HEK293, read-out: pIC50 (converted); for pIC50: hek293
[4] = molecular target: T2, GABA transporter 4 (Mus musculus, UniProt P31650); assay: Inhibition of mouse GAT4 transfected in HEK293 cells assessed as reduction in [3H]-GABA uptake preincubated for 25 mins followed by [3H]-GABA addition and measured after 4 mins by liquid scintillation counting analysis; type: cell-based; settings: read-out: pIC50 (converted)
T2 sequence (P31650 whole entry): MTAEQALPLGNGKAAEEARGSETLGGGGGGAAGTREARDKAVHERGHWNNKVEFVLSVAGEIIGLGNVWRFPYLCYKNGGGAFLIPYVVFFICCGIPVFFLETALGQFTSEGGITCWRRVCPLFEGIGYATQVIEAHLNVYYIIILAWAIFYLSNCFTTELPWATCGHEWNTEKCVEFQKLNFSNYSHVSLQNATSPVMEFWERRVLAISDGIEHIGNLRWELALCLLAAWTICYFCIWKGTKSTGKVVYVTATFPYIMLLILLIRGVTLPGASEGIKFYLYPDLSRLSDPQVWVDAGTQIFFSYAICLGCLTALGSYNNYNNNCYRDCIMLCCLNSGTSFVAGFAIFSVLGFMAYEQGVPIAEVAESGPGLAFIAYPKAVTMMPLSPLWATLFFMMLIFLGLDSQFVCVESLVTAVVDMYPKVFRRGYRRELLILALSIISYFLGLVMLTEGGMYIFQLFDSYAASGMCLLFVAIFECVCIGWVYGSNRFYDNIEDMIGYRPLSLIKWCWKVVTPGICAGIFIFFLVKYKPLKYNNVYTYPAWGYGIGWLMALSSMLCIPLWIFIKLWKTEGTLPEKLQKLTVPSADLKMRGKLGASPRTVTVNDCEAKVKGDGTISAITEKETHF

[5] = molecular target: Sodium- and chloride-dependent GABA transporter 1 (Mus musculus) (UniProt P31648); assay: Inhibition of NO 711 marker binding to mouse GAT1 assessed as residual activity at 100 uM by LC-ESI-MS/MS based competitive MS binding assay relative to control
[6] = molecular target: Acetylcholinesterase (Electrophorus electricus) (UniProt O42275); assay: Inhibition of electric eel AChE using acetylthiocholine iodide as substrate at 10 uM preincubated for 5 mins followed by substrate addition and measured after 5 mins by DTNB reagent based Ellman's method relative to control; settings: time 10.0 min
[7] = molecular target: Beta-secretase 1 (Homo sapiens, UniProt P56817); settings: dose 50.0 µM, time 60.0 min
[8] = molecular target: Cholinesterase (Equus caballus, UniProt P81908)
Description: Inhibition of equine serum BuChE using butyrylthiocholine iodide as substrate preincubated for 5 mins followed by substrate addition and measured after 5 mins by DTNB reagent based Ellman's method

[9] = molecular target: Cholinesterase (Equus caballus) (UniProt P81908); assay: Inhibition of equine serum BuChE using butyrylthiocholine iodide as substrate at 10 uM preincubated for 5 mins followed by substrate addition and measured after 5 mins by DTNB reagent based Ellman's method relative to control; settings: time 10.0 min
Cholinesterase (Equus caballus), sequence (P81908 whole entry): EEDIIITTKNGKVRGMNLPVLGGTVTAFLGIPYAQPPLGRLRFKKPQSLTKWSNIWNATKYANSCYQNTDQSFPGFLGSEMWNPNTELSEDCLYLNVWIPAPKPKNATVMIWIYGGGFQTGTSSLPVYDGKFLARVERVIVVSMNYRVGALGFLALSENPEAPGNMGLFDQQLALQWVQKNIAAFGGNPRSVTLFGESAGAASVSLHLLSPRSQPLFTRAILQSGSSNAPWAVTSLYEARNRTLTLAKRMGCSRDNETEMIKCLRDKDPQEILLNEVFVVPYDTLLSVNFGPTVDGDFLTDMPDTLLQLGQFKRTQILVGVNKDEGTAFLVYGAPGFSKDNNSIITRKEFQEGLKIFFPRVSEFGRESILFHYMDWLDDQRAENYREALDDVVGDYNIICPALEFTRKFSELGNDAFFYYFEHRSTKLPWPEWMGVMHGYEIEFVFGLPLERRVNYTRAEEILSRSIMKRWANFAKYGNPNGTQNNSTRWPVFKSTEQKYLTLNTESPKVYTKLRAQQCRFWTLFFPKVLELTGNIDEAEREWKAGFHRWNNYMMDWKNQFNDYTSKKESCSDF

Acetylcholinesterase (Electrophorus electricus), sequence (O42275 24-633 limits assumed): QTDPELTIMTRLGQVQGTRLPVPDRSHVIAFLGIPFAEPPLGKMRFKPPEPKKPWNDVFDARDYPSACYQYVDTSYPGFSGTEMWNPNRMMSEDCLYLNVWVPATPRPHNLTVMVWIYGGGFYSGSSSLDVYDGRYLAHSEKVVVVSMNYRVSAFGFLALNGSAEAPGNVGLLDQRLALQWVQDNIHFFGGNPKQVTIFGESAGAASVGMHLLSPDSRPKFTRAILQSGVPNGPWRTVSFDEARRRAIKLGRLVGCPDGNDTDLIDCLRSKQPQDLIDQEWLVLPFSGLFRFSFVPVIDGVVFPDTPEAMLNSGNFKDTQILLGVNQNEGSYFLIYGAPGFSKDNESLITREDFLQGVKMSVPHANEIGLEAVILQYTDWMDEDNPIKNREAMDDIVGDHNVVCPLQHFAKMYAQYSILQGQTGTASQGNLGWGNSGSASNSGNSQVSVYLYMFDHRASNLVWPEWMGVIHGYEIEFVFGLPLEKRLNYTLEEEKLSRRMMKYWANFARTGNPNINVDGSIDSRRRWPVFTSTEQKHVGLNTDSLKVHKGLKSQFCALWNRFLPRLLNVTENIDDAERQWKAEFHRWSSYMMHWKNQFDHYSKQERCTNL
Beta-secretase 1, sequence (P56817 whole entry): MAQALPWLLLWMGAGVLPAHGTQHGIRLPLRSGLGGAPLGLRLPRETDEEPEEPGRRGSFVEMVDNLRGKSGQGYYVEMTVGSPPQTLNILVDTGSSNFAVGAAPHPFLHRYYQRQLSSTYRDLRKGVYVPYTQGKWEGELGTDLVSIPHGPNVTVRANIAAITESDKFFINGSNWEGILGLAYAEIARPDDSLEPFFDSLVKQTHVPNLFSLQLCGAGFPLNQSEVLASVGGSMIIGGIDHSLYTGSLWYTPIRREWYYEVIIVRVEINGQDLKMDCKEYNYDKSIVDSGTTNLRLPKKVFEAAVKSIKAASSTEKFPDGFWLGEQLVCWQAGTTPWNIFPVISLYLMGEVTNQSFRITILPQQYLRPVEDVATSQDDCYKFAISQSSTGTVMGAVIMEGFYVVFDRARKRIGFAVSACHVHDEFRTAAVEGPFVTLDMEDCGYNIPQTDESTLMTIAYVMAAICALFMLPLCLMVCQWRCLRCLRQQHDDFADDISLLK
Cholinesterase, sequence (P81908 whole entry): as the sequence (P81908 whole entry) above

CC(=O)NCCC(C(=O)NCc1ccc(Cl)cc1)N(C)CCOCCN1c2ccccc2Sc2ccccc21 (centres undefined)
IC50 [1]: 19.1 µM
IC50 [2]: 9.55 µM
IC50 [3]: 8.91 µM
IC50 [4]: 12.3 µM
Activity [5]: 91%
inhibition [6]: < 10%
inhibition [7]: 41%
IC50 [8]: 4.7 µM

CC(=O)NCCC(C(=O)NCc1ccc(F)cc1)N(C)CCOCCN1c2ccccc2Sc2ccccc21 (centres undefined)
IC50 [1]: 22.9 µM
IC50 [2]: 24.5 µM
IC50 [3]: 10.7 µM
IC50 [4]: 18.2 µM
Activity [5]: 85%
inhibition [6]: < 10%
inhibition [7]: 45%
IC50 [8]: 8.25 µM

CC(O)CC(C(=O)NCc1ccc(F)cc1)N(C)CC/C=C/c1ccccc1-c1ccccc1 (racemic; form 1) [listing 1 of 2 here]
IC50 [1]: 24.5 µM
IC50 [2]: 9.77 µM
IC50 [3]: 8.91 µM
IC50 [4]: 19.1 µM

CC(O)CC(C(=O)NCc1ccccc1Cl)N(C)CC/C=C/c1ccccc1-c1ccccc1 (racemic; form 2) [listing 1 of 2 here]
IC50 [1]: 28.8 µM
IC50 [2]: 13.5 µM
pIC50 [3]: 4.82
IC50 [4]: 15.1 µM
IC50 [8]: 3.67 µM

CN(CC/C=C/c1ccccc1-c1ccccc1)C(CO)C(=O)NCc1ccc(F)cc1 (centres undefined)
IC50 [1]: 28.8 µM
IC50 [2]: 22.4 µM
IC50 [3]: 22.9 µM
IC50 [4]: 30.2 µM
Activity [5]: 94%
inhibition [6]: < 10%
inhibition [7]: 52%
IC50 [8]: 0.917 µM

CN(CC/C=C/c1ccccc1-c1ccccc1)C(CO)C(=O)NCc1ccccc1Cl (centres undefined)
IC50 [1]: 16.2 µM
IC50 [2]: 11 µM
IC50 [3]: 17 µM
IC50 [4]: 15.5 µM
Activity [5]: 75%
inhibition [6]: < 10%
inhibition [7]: 51%
IC50 [8]: 2.27 µM

CN(CCOCCN1c2ccccc2Sc2ccccc21)C(CCO)C(=O)NCc1ccc(F)cc1 (centres undefined)
IC50 [1]: 26.9 µM
IC50 [2]: 11.5 µM
IC50 [3]: 11 µM
IC50 [4]: 13.2 µM
Activity [5]: 84%
inhibition [6]: < 10%
inhibition [7]: 42%
IC50 [8]: 4.54 µM

CC(O)CC(C(=O)NCc1ccccc1Cl)N(C)CC/C=C/c1ccccc1-c1ccccc1 (racemic; form 1) [listing 1 of 2 here]
IC50 [1]: 33.9 µM
IC50 [2]: 15.5 µM
IC50 [3]: 13.8 µM
IC50 [4]: 38 µM

CC(=O)NCCC(C(=O)NCc1ccccc1Cl)N(C)CCOCCN1c2ccccc2Sc2ccccc21 (centres undefined)
IC50 [1]: 14.1 µM
IC50 [2]: 20.4 µM
IC50 [3]: 10.2 µM
IC50 [4]: 10.2 µM
Activity [5]: 86%
inhibition [6]: < 10%
inhibition [7]: 35%
IC50 [8]: 2.79 µM

CC(O)CC(C(=O)NCc1ccccc1Cl)N(C)CC/C=C/c1ccccc1-c1ccccc1 (racemic; form 2) [listing 2 of 2 here]
Activity [5]: 76%
inhibition [6]: < 10%
inhibition [7]: 57%

CC(=O)NCCC(C(=O)NCc1ccccc1)N(C)CCOCCN1c2ccccc2Sc2ccccc21 (centres undefined)
IC50 [1]: 38 µM
IC50 [2]: 19.1 µM
IC50 [3]: 11.7 µM
IC50 [4]: 25.1 µM
Activity [5]: 82%
inhibition [6]: < 10%
inhibition [9]: 58%
inhibition [7]: 30%

CN(CC/C=C/c1ccccc1-c1ccccc1)C(CO)C(=O)NCc1ccccc1 (centres undefined)
IC50 [1]: 25.1 µM
IC50 [2]: 20 µM
IC50 [3]: 17 µM
IC50 [4]: 17.4 µM
Activity [5]: 67%
inhibition [6]: < 10%
inhibition [7]: 42%
IC50 [8]: 0.683 µM

CC(O)CC(C(=O)NCc1ccc(F)cc1)N(C)CC/C=C/c1ccccc1-c1ccccc1 (racemic; form 2) [listing 1 of 2 here]
pIC50 ([1]; hek293): 4.61
IC50 [2]: 11.7 µM
pIC50 [3]: 4.87
IC50 [4]: 14.5 µM

CC(O)CC(C(=O)NCc1ccccc1)N(C)CC/C=C/c1ccccc1-c1ccccc1 (racemic; form 1) [listing 1 of 2 here]
IC50 [1]: 37.2 µM
IC50 [2]: 18.2 µM
IC50 [3]: 25.1 µM
IC50 [4]: 50.1 µM

CC(O)CC(C(=O)NCc1ccc(F)cc1)N(C)CC/C=C/c1ccccc1-c1ccccc1 (racemic; form 1) [listing 2 of 2 here]
Activity [5]: 86%
inhibition [6]: < 10%
inhibition [9]: 59%
inhibition [7]: 39%

CC(O)CC(C(=O)NCc1ccc(F)cc1)N(C)CC/C=C/c1ccccc1-c1ccccc1 (racemic; form 2) [listing 2 of 2 here]
Activity [5]: 87%
inhibition [6]: < 10%
inhibition [9]: 62%
inhibition [7]: 36%

CN(CCOCCn1c2ccccc2c2ccccc21)C(CCO)C(=O)NCc1ccc(F)cc1 (centres undefined)
IC50 [1]: 37.2 µM
IC50 [2]: 13.8 µM
IC50 [3]: 16.2 µM
IC50 [4]: 18.2 µM
Activity [5]: 112%
inhibition [6]: < 10%
inhibition [7]: 65%
IC50 [8]: 4.83 µM

CC(O)CC(C(=O)NCc1ccccc1)N(C)CC/C=C/c1ccccc1-c1ccccc1 (racemic; form 1) [listing 2 of 2 here]
Activity [5]: 75%
inhibition [6]: < 10%
inhibition [9]: 58%
inhibition [7]: 36%

CC(=O)NCCC(C(=O)NCc1ccc(C)cc1)N(C)CCOCCN1c2ccccc2Sc2ccccc21 (centres undefined)
IC50 [1]: 22.9 µM
IC50 [2]: 14.1 µM
IC50 [3]: 7.94 µM
IC50 [4]: 12.6 µM
Activity [5]: 89%
inhibition [6]: < 10%
inhibition [7]: 52%
IC50 [8]: 3.2 µM

CN(CCOCCn1c2ccccc2c2ccccc21)C(CCO)C(=O)NCc1ccccc1 (centres undefined)
IC50 [1]: 38 µM
IC50 [2]: 26.9 µM
IC50 [3]: 14.8 µM
IC50 [4]: 17.4 µM
Activity [5]: 92%
inhibition [6]: < 10%
inhibition [7]: 64%
IC50 [8]: 4.16 µM

CN(CCOCCn1c2ccccc2c2ccccc21)C(CCO)C(=O)NCc1ccccc1Cl (centres undefined)
IC50 [1]: 23.4 µM
IC50 [2]: 16.2 µM
IC50 [3]: 13.2 µM
IC50 [4]: 11.2 µM
Activity [5]: 94%
inhibition [6]: < 10%
inhibition [7]: 79%
IC50 [8]: 2.65 µM

CN(CCOCCN1c2ccccc2Sc2ccccc21)C(CCO)C(=O)NCc1ccccc1 (centres undefined)
IC50 [1]: 35.5 µM
IC50 [2]: 12.9 µM
IC50 [3]: 8.51 µM
IC50 [4]: 21.4 µM
Activity [5]: 93%
inhibition [6]: < 10%
inhibition [7]: 48%
IC50 [8]: 4.34 µM

CC(O)CC(C(=O)NCc1ccccc1Cl)N(C)CC/C=C/c1ccccc1-c1ccccc1 (racemic; form 1) [listing 2 of 2 here]
Activity [5]: 75%
inhibition [6]: < 10%
inhibition [9]: 64%
inhibition [7]: 43%

Cc1ccc(CNC(=O)C(CCO)N(C)CCOCCN2c3ccccc3Sc3ccccc32)cc1 (centres undefined)
IC50 [1]: 20.4 µM
IC50 [2]: 12.9 µM
IC50 [3]: 8.51 µM
IC50 [4]: 19.1 µM
Activity [5]: 85%
inhibition [6]: < 10%
inhibition [7]: 30%
IC50 [8]: 2.48 µM

CN(CCC=C1c2ccccc2C=Cc2ccccc21)C(CCO)C(=O)NCc1ccccc1Cl (centres undefined)
inhibition [6]: < 10%
inhibition [9]: 32%
inhibition [7]: 48%

CC(=O)NCCC(C(=O)NCc1ccccc1Cl)N(C)CCC=C1c2ccccc2CCc2ccccc21 (centres undefined)
inhibition [6]: < 10%
inhibition [9]: 41%
inhibition [7]: 44%

CN(CCC=C1c2ccccc2CCc2ccccc21)C(CO)C(=O)NCc1ccc(Cl)cc1 (centres undefined)
inhibition [6]: < 10%
inhibition [9]: 36%
inhibition [7]: 34%

CN(CCOCCN1c2ccccc2Sc2ccccc21)C(CCO)C(=O)NCc1ccccc1Cl (centres undefined)
IC50 [1]: 44.7 µM
IC50 [2]: 31.6 µM
IC50 [3]: 26.3 µM
IC50 [4]: 29.5 µM
Activity [5]: 100%
inhibition [6]: < 10%
inhibition [7]: 35%
IC50 [8]: 3.55 µM
